According to US20230118142A1, “AGENTS FOR USE IN THE TREATMENT OF TISSUE DAMAGE” (UCL BUSINESS LTD, priority 2020, published 2023):
“And” between values parts separate entries of the source, which are not always exact repeats. Equal values may be shown once.

Experiments:
CRP [1] = biological target: T1, CRP (Homo sapiens, UniProt P02741); experiment: Roche immunoturbidimetric assay: pure CRP; assay type: binding; parameters: The final concentrations were 0.73 μM native pentameric CRP; from tissue; conditions: pure CRP in TC buffer; read-out: IC50 (μM), SD; inhibition of Roche CRP immunoreactivity
T1 sequence (P02741 19-224): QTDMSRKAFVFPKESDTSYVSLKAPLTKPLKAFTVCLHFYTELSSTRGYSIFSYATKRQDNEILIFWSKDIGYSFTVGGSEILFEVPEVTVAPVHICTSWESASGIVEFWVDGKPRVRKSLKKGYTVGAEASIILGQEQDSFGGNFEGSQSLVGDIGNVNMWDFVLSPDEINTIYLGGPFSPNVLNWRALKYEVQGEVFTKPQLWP
Procedure: (i) Human CRP at ˜90 μg/ml (3.9 μM monomer or 0.78 μM pentamer) in TC buffer was prepared from a stock solution; a 75 μl aliquot was used in the assay.
(ii) Compounds were prepared from stock solutions at up to 10 mM in TC (labelled S1). They were serially diluted with TC buffer (100 μl ligand+200 μl TC) to provide up to 9 dilutions, S2-S10. A TC buffer control (S0) was included in each assay.
(iii) A 15 μl volume of each ligand solution was incubated with 75 μl of CRP for 1 h at 37° C. The final concentrations were CRP pentamer=0.73 μM, ligands S1-S10=625-0.03 μM, corresponding to ligand:CRP pentamer ratios of 853-0.04.
(iv) CRP concentrations were measured by the Roche microparticle-enhanced immunoturbidimetric assay (10) on the COBAS MIRA autoanalyser, and results expressed as a percentage of the CRP control.
(v) Data were plotted using Sigmaplot (V14) using the 4 parameter logistic curve y=min+(max−min)/(1+(x/EC50)^−Hill slope) to calculate EC50.
(vii) All compounds were assayed in comparison with a highly purified preparation of BPC8, that was prepared by Carbogen AMCIS AG, dissolved in sterile water and diluted into TC buffer as required.
The immunoturbidimetric CRP assay on the Roche COBAS MIRA Plus autoanalyser, utilises two different sized microparticles that are covalently coupled with two different monoclonal antibodies, which recognise different CRP epitopes. The assay was developed by Roche for clinical measurement of CRP serum and plasma with high sensitivity and a very wide dynamic range. Serendipitously, one of the two antibodies binds to an epitope present on the ligand binding B-face of CRP. Thus, when the binding pocket is occupied by ligand and, especially, when the B-face is occluded by the B-face to B-face interaction of two native CRP pentamers produced by cross linking via our unique bivalent ligands, the assay fails to detect the CRP. In contrast, the CRP is all detected and assayed normally by other assays that disrupt the crosslinking and/or use antibodies which recognise different, non-occluded, epitopes. Inhibition of CRP recognition in the Roche assay is thus a convenient tool to monitor the efficacy and potency of complex formation between our unique ligands and CRP.

CRP [2] = biological target: T1, CRP; experiment: In vivo clearance of CRP/ligand complexes generated in vivo in mice; parameters: The final concentrations were 0.73 μM native pentameric CRP; from tissue
Procedure: (i) Two groups of 8 wild-type C57BL/6 mice (male; 23-27 weeks old) were used: group 1 (control) and group 2 (treated).
(§1) (ii) Both groups of animals were given 200 μl of human CRP (5 mg/ml in azide-free TC buffer) subcutaneously on day 1.
(iii) On day 2 (+18 h), control animals were given a 200 μl intravenous bolus of TC buffer. Treated animals were given a 200 μl iv bolus of ligand (prepared at 5 mg/ml in TC buffer).
(iv) One timed blood sample and a terminal blood sample were collected from each mouse into heparinised tubes and weighed. This generated data in quadruplicate at 4 time points, normally 30, 60, 120 and 360 minutes.
(v) ^125I radiolabel was measured (Perkin Elmer Wizard; protocol #1) in whole blood to quantify total CRP. In some cases, electroimmunoassay as above was also used to determine total CRP concentration.
(vi) Plasma was prepared and free CRP determined by Roche immunoassay.
(§2) Subcutaneous injection of human CRP provided circulating CRP concentrations with which to test for effects of our ligands in vivo. (Table 4).

CRP [3] = biological target: T1, CRP; experiment: MIRA immunoturbidimetric assay; assay type: binding; parameters: The final concentrations were 0.73 μM native pentameric CRP; from tissue
From the text: The CRP immunoturbidimetric assay on the Roche COBAS MIRA Plus autoanalyser, utilises two different sized latex particles that are covalently coupled with two different monoclonal antibodies with specificity for different CRP epitopes (10). The assay was validated by Roche for measurement of native pentameric CRP, for which it has high sensitivity and specificity and a high upper detection limit; it was calibrated against a standard produced in our laboratory. Serendipitously, one of the assay's antibodies binds to an epitope present on the ligand binding B face of CRP. […]
CRP concentrations were measured in the presence and absence of ligands by the COBAS MIRA autoanalyser. […] CRP concentration was determined spectrophotometrically (Beckman Coulter DU 650) in quartz cuvettes with a 1 cm light path, by measuring A280 after correction for absorbance at 320 nm (light scattering) and using the measured absorption coefficient A(1%, 1 cm)=17.5 for human CRP (7). […]
Data are expressed as measured CRP (mg/L) against final total ligand concentration (M) and were plotted using Sigmaplot (V14) using the 4 parameter logistic curve y=min+(max−min)/(1+(x/EC50)^−Hill slope) to calculate EC50. Where appropriate, samples were also measured in whole normal human serum following the addition of a known amount of human CRP. […]

CRP [4] = biological target: T1, CRP; experiment: Size exclusion chromatography of CRP/ligand cross linking; assay type: binding; parameters: The final concentrations were 0.73 μM native pentameric CRP; from tissue; conditions: CRP/ligand complex re-chromatographed in absence of free ligand
Procedure: (i) Ligands were diluted to 0.5 mM in TC buffer from up to 10 mM stocks. Serial dilutions were prepared as required. […]
(iii) The complex was chromatographed on a Superdex200 column (10/300 GL; 24 ml bed volume), connected to the ÅKTA100 Explorer HPLC system, and equilibrated and eluted in TC buffer at 0.5 ml/min. Eluates were monitored at 280 nm and fractions (0.5 ml) collected as required.
Size exclusion chromatography on a Superdex 200 column equilibrated and eluted with TC buffer pH 8.0, and calibrated with standard globular marker proteins and with human CRP, the native CRP pentamer (Mr 115 kDa) eluted at 13.9 ml (range 13.7-14.0 ml, n=10).

CRP [5] = biological target: T1, CRP; experiment: In vivo clearance of preformed CRP/ligand complexes in mice; parameters: from tissue
Procedure: (i) CRP at 1 mg/ml in azide-free TC buffer (containing, in some experiments, ˜10^6 cpm/ml of ^125I-CRP) was incubated with a 5-fold molar excess of ligand. A control (ligand-free) sample was also prepared. Cross linking of CRP was confirmed by SEC in TC buffer of a small sample of complex.
(ii) Two groups of eight wild-type C57BL/6 mice (male; 23-27 weeks old) were used.
The complex or control (200 μl, 200 μg CRP) was injected into the tail vein of each mouse. A single timed collection of blood was taken from the tail vain of each mouse; a second terminal sample was also collected. This yielded 4 samples each at 30, 60, 120 and 180 min for control and treated groups.
(iii) Blood samples were weighed and CRP measured in the Roche assay and, in some cases by electroimmunoassay (4, 13). ^125I-CRP was measured by gamma counting (Perkin Elmer Wizard; protocol #1).
Complexes were prepared in vitro using ^125I-labelled CRP and an excess of ligand, and the mixture was then injected intravenously into mice. Clearance of CRP was monitored by counting of the ^125I-CRP tracer and stable CRP-ligand complexes were detected by lack of CRP detection in the Roche assay of the plasma samples. The formation of CRP/ligand complexes was confirmed by size exclusion chromatography before use in each in vivo experiment.

[6] = Circulating CRP concentrations after subcutaneous CRP in mice; assay type: in vivo; conditions: individual mice
Procedure: as §1, §2

Compound	IC50 (CRP [1])	IC50 (CRP [3])	Stable to rechromatography (CRP [4])	other results
O=C(NC(C(=O)O)[C@H]1CN2CCC1CC2)c1ccc(C(=O)NC(C(=O)O)[C@H]2CN3CCC2CC3)cc1 (stereo partly drawn) [Compound P2B-B, (R,2R,2′R)-2,2′-(terephthaloylbis(azanediyl))bis(2-((R)-quinuclidin-3-yl)acetic acid)]	0.64 ± 0.17 µM	0.6 µM	Yes	Time CRP:ligand complex generated in vivo was stable (CRP [2]): at least 1 hour
O=C(NC(C(=O)O)[C@H]1CN2CCC1CC2)c1cccc(C(=O)NC(C(=O)O)[C@H]2CN3CCC2CC3)c1 (stereo partly drawn) [Compound P2B-E, 2-[[3-[[carboxy-[(3R)-quinuclidin-3-yl]methyl]carbamoyl]benzoyl]amino]-2-[(3R)-quinuclidin-3-yl]acetic acid]	–	2.02 µM	–	–
O=C(O)C(NC(=O)[C@H]1CC[C@H](C(=O)NC(C(=O)O)[C@H]2CN3CCC2CC3)CC1)[C@H]1CN2CCC1CC2 (stereo partly drawn) [Compound P2B-H, 2-[[4-[[-carboxy-[(3R)-quinuclidin-3-yl]methyl]carbamoyl]cyclohexanecarbonyl]amino]-2-[(3R)-quinuclidin-3-yl]acetic acid]	0.6 µM	–	Yes	Time complex generated in vivo was partially stable (CRP [2]): at least 3 hours
O=C(NC([C@H]1CN2CCC1CC2)P(=O)(O)OCc1ccccc1)c1ccc(C(=O)NC([C@H]2CN3CCC2CC3)P(=O)(O)OCc2ccccc2)cc1 (some centres unmarked) [Compound P3A-C]	0.91 µM	–	–	Time complexes stable in vivo (CRP [5]; complexes formed in vitro): at least 6 hours
CRP: Human C-reactive protein, isolated and purified, injected into mice	–	–	–	t1/2 of clearance of CRP (CRP [5]; intravenous, 125I-CRP tracer): ~2.17 h; Circulating CRP concentration ([6]; 16 h after subcutaneous 1 mg CRP): 58.2 mg/L and 69.2 mg/L; Circulating CRP concentration ([6]; 18 h after subcutaneous 1 mg CRP): 44.0 mg/L and 57.2 mg/L; Circulating CRP concentration ([6]; 24 h after subcutaneous 1 mg CRP): 24.0 mg/L and 32.2 mg/L
